From patent US9645154B2, “Method for detecting cancer cell” (ARKRAY, Inc., priority 2010, dated 2017)

Tests used:
[1] = tested on: Breast cancer cell line MCF-7 and blood cells (leucocytes and erythrocytes); assay: 2-NBDG incorporation observed visually under a fluorescence microscope; format: cell-based, human; details: sample 1, mixture of MCF-7 and blood cells, 37° C., 40 minutes
Protocol: From venous blood of a healthy person, a […] and precipitates were separated by centrifugation according to the conventional method. From the […], a leucocyte layer and an erythrocyte layer were partially collected, and then resuspended in PBS to prepare a leucocyte sample and a erythrocyte sample, respectively.
Breast cancer cell line MCF-7 (purchased from DS Pharma Biomedical Co., Ltd). was cultured at 37° C. with 5% (v/v) CO2 using α-MEM culture medium (Invitrogen, supplemented with 10% (v/v) FBS, 2 mM L-glutamine, 100 U/mL penicillin and 100 μg/mL streptomycin). Immediately before the test, the cells were harvested with 0.25% trypsin-EDTA and washed with PBS, thereby preparing a cancer cell line sample.
To each of 300 μL (4×10^5 cells/mL) of the cancer cell line, the blood cells (leucocytes and erythrocytes) or a mixture thereof was added 30 μL of 10 mM 2-[N-(7-nitrobenz-2-oxa-1,3-diazol-4-yl)amino]-2-deoxy-D-glucose (2-NBDG) (Wako Pure Chemical Industries, Ltd.) according to the description in Table 2, thereby preparing samples 1 to 7. These samples were then incubated at 37° C. for 40 minutes. To the sample to which 2-NBDG was not added, a corresponding amount of PBS was added instead of 2-NBDG.
After incubation, each sample was centrifuged at 2,000 rpm for 5 minutes (Hitachi Ltd.) to harvest the cells. To the harvested cells was added 10 μL of an anti-EpCAM antibody-PE (R&D systems), and the mixture was allowed to stand for 30 minutes in the cool and dark place.
After 30 minutes, the mixture was washed with 1,000 μL of PBS, and the cells were harvested by centrifugation at 2000 rpm for 5 minutes in accordance with the conventional method.
The harvested cells were resuspended in 50 μL of PBS, and the entire volume thereof was transferred to a 96-well plate, thereby preparing an observation sample.
Each of the observation samples was observed under a fluorescence microscope (Nikon Corp.), and an amount of 2-NBDG incorporated was visually observed.

[2] = tested on: human breast adenocarcinoma cells (MCF-7); assay: Labeled sugar incorporation, fluorescence microscopy image analysis (positive rate); format: cell-based; details: hemolyzed, 10 mM, 5 min, 23° C., threshold value 330
Protocol: (§1) The number of the cells was counted for each cell line using a hemacytometer in accordance with the conventional method, and then 10^5 to 10^6 cells per sample (cell suspension) was aliquoted. Each of the sample was centrifuged to remove the supernatant. Subsequently, 2-NBDG (Wako Pure Chemical Industries, Ltd.; at the final concentration given in Table 3 or 4) dissolved in Dulbecco's PBS (−) was added thereto, and the cells were suspended well. After the reaction, Dulbecco's PBS (−) was added to the mixture, and the resultant was centrifuged to remove the supernatant. The cells were resuspended with Dulbecco's PBS (−) and centrifuged, and the supernatant was removed again. The steps of resuspending cells with Dulbecco's PBS (−), centrifuging and removing the supernatant were then repeated 2 to 3 times, thereby washing the cells thoroughly. The cells were resuspended with Dulbecco's PBS (−), the concentration thereof was adjusted, and then added dropwise to a 384-well plate. The plate was centrifuged to spin down the cells. The image was captured with a fluorescence microscope (Nikon Corp.) using B-2A filter combination (Nikon Corp.). The B-2A set covers the following wavelengths. EX (excitation wavelength): 475±15 nm, DM: 505 nm or longer, BA (fluorescence wavelength) 520 nm or longer.
(§2) The acquired images were analyzed using an image analysis software NIS-ELEMENTS (trade name, Nikon Corp.) to evaluate the fluorescence intensity of the cell.
(§3) In a manner similar to Example 2, each of human breast adenocarcinoma cells (cell line name: MCF-7; DS Pharma Biomedical Co., Ltd.), human colon adenocarcinoma cells (cell line name: SW620; DS Pharma Biomedical Co., Ltd.), human prostate cancer cells (cell line name: PC3; DS Pharma Biomedical Co., Ltd.), human alveolar epithelial cancer cells (cell line name: NCI-H358; DS Pharma Biomedical Co., Ltd.), human gastric cancer cells (cell line name: SNU-1; ATCC) and human fibrosarcoma cells (cell line name: HT1080; DS Pharma Biomedical Co., Ltd.) was detected with the labeled sugar (2-NBDG).

[3] = tested on: human prostate cancer cells (PC3); assay: as above; format: cell-based; details: hemolyzed, 10 mM, 5 min, 23° C., threshold value 880
Protocol: as §1, §2, §3

[4] = tested on: human colon adenocarcinoma cells (SW620); assay: as above; format: cell-based; details: threshold value 280
Protocol: as §1, §2, §3

[5] = tested on: human alveolar epithelial cancer cells (NCI-H358); assay: as above; format: cell-based; details: hemolyzed, 10 mM, 5 min, 23° C., threshold value 370
Protocol: as §1, §2, §3

[6] = tested on: human gastric cancer cells (SNU-1); assay: Aminolevulinic acid (with FeCl2 and ascorbic acid) labeling, fluorescence microscopy image analysis (positive rate); format: cell-based; details: hemolyzed, 0.3 mM, 60 min, 37° C., threshold value 198
Description: In accordance with the conventional method, cultured human prostate cancer cell line PC3 (DS Pharma Biomedical Co., Ltd.) was harvested with trypsin (Invitrogen). The human gastric cancer cell line SNU-1 (ATCC), which is a suspension cell line, was directly harvested without any trypsin treatment. The cell suspension of the harvested cancer cells was centrifuged, and the supernatant was removed. The cells were resuspended with Dulbecco's PBS (+) (Nissui Pharmaceutical Co., Ltd.) and centrifuged, and the supernatant was removed again.
The number of the cells was counted using a hemacytometer in accordance with the conventional method, and then 10^5 to 10^6 cells per sample (cell suspension) was aliquoted. The sample was centrifuged to remove the supernatant. […] The image was captured with a fluorescence microscope (Nikon Corp.).
The wavelengths for the fluorescence filter set: EX (excitation wavelength): 402±7.5, DM: 430 or longer, BA (fluorescence wavelength): 625±15.
The acquired images were analyzed using an image analysis software NIS-ELEMENTS (trade name, Nikon Corp.) to evaluate the fluorescence intensity of the cell. […]

Structure (SMILES) | fluorescence image of erythrocyte cell [1] | fluorescence intensity of the leucocyte cell image relative to the cancer cell [1] | observation of the cancer cell line in the fluorescence image ([1]; FIGS. 4 to 6) | Positive rate (Cancer cells) [2] [%] | Positive rate (Cancer cells) [3] [%] | Positive rate (Cancer cells) ([4]; hemolyzed, 10 mM, 5 min, 23° C.) [%] | Positive rate (Cancer cells) ([4]; single, Glucose conc.: 1 mM, Temp.: 37° C., Time: 30 min) [%] | Positive rate (Cancer cells) [5] [%] | Positive rate (Cancer cells) [6] [%]
O=[N+]([O-])c1ccc(N[C@H]2C(O)O[C@H](CO)[C@@H](O)[C@@H]2O)c2nonc12 (stereo partly drawn) [2-NBDG, 2-[N-(7-nitrobenz-2-oxa-1,3-diazol-4-yl)amino]-2-deoxy-D-glucose] | not observed at all | equal to or less than half the fluorescence intensity of the cancer cell | clearly observed | 100.0 | 69.8 | 100.0 | 100.0 | 83.0 | –
NCC(=O)CCC(=O)O [aminolevulinic acid, 5-amino-4-oxopentanoic acid] | – | – | – | – | – | – | – | – | 81.6
